In patent US20230073764A1, “COMPOSITION OF TANNIC ACID AND VITAMIN D AND METHODS OF USE” (Elastogenesis, LLC, priority 2021, published 2023):

Assays:
[1] = system: human dermal fibroblasts; assay: Immunodetection of elastin in cultured human dermal fibroblasts; assay type: cell-based
Experimental: (§1) Biological effects of tannic acid in the presence of hyaluronic acid or ferulic acid were tested on dermal fibroblasts derived from punch biopsies of healthy skin. All fibroblasts were isolated by allowing migration out of skin explants and passaged by trypsinization. Fibroblasts were maintained in alpha-minimum essential medium supplemented with 20 mM HEPES, 1% antibiotics and antimycotics, 1% L-Glutamate and 2% fetal bovine serum (FBS). Cells were plated ([…] cells/dish) to reach confluency and were cultured for 7 days in the presence or absence of hyaluronic acid (0.1%), ferulic acid ([…]), tannic acid (2 μg/mL), or a combination thereof.
(§2) Cell cultures prepared according to Example 1 maintained in the presence or absence of tannic acid, hyaluronic acid, or ferulic acid were fixed in cold 100% methanol at […] for detection of elastin or in 4% paraformaldehyde at room temperature for detection of collagen I. The multiple parallel cultures were incubated with […] of polyclonal antibody to tropoelastin (Elastin Products, Owensville, Mich.), or polyclonal antibody to collagen type I (Chemicon, Temecula, Calif.). Cultures were incubated with the respective fluorescein-conjugated goat anti-rabbit, goat anti-mouse, or rabbit anti-goat secondary antibodies. Nuclei were counter stained with propidium iodide (Sigma, St. Louis, Mo.). All cultures were examined with a Nikon Eclipse E1000 microscope attached to a cooled CCD camera (QImaging, Retiga EX) and analyzed with the computer-generated morphometric analysis system, in which the Image-Pro Plus software (Media Cybernetics, Silver Springs, Md.) estimates the proportion of areas marked with green fluorescence, in relation to the entire (1 square mm) analyzed field.
Cultured human dermal fibroblasts were grown in the presence or absence of tannic acid at low concentration (2 μg/mL) and high concentration (20 μg/mL). Immunodetection of elastin was performed as described in Example 2.
(§3) Cultured human dermal fibroblasts were grown in the presence of or absence of vitamin D (10^−7 M), tannic acid ([…]), or a combination of vitamin D and tannic acid (2 μg/mL) (FIGS. 2A-2B and FIGS. 3A-3C). Immunodetection of elastin was performed as described above.
Cultured human dermal fibroblasts were grown in the presence of or absence hyaluronic acid (0.1%), tannic acid (2 μg/mL), or a combination of hyaluronic acid (0.1%) and tannic acid (2 μg/mL). Immunodetection of elastin was performed as described above.
Cultured human dermal fibroblasts were grown in the presence or absence of ferulic acid (5 μg/mL), tannic acid (2 μg/mL), or a combination of ferulic acid (5 μg/mL) and tannic acid (2 μg/mL). Immunodetection of elastin and collagen I was performed as described above. Results are shown in FIGS. 5A-5C, and FIGS. 6A-6B for elastin and FIGS. 7A-7C and FIG. 8 for collagen.
Cultured human dermal fibroblasts were grown in the presence or absence of ferulic acid (20 μM), tannic acid (2 μg/mL), or copper sulfate (2 μM). Fibroblasts were also grown in presence of a combination of ferulic acid (20 μM) and copper sulfate (2 μM), a combination of ferulic acid (20 μM) and tannic acid (2 μg/mL), and a combination of tannic acid (2 μg/mL) and copper sulfate (2 μM). Immunodetection of elastin was performed as described above.

[2] = system: fibroblast cultures; assay: Tropoelastin in fibroblast cultures measured using PCR; assay type: cell-based, human; details: PCR after 18 hours; tannic acid added to cultures that contained vitamin D3
Experimental: FIG. 2A depicts the amount of tropoelastin in fibroblast cultures measured using PCR after 18 hours.
as §3

[3] = cited from earlier work
[4] = system: human dermal fibroblasts; assay: Immunodetection of collagen I in cultured human dermal fibroblasts; assay type: cell-based; details: ferulic acid (5 μg/mL) alone
Experimental: as §1
as §2, with “All cultures were examined with a Nikon Eclipse E1000 microscope attached to a cooled CCD camera (QImaging, Retiga EX) and analyzed with the computer-generated morphometric analysis system, in which the Image-Pro Plus software (Media Cybernetics, Silver Springs, Md.) estimates the proportion of areas marked with green fluorescence, in relation to the entire (1 square mm) analyzed field.” left out

[5] = tannic acid (2 μg/mL) added to hyaluronic acid (0.1%)
[6] = tannic acid (2 μg/mL) added to vitamin D (10^−7 M)

Question: For vitamin D [reference compound], which elastin production ([1]; vitamin D (10^−7 M) alone) is on record?
Answer: The elastin production was “causes inhibition of elastin production”.

Question: For hyaluronic acid, which elastin production ([1]; hyaluronic acid (0.1%) alone) is on record?
Answer: The elastin production was “causes inhibition of elastin production”.

Question: Which amount of tropoelastin [2] does the source give for `O=C(OC[C@H]1O[C@@H](OC(=O)c2cc(O)c(O)c(OC(=O)c3cc(O)c(O)c(O)c3)c2)[C@H](OC(=O)c2cc(O)c(O)c(OC(=O)c3cc(O)c(O)c(O)c3)c2)[C@@H](OC(=O)c2cc(O)c(O)c(OC(=O)c3cc(O)c(O)c(O)c3)c2)[C@@H]1OC(=O)c1cc(O)c(O)c(OC(=O)c2cc(O)c(O)c(O)c2)c1)c1cc(O)c(O)c(OC(=O)c2cc(O)c(O)c(O)c2)c1` [tannic acid] here?
Answer: The amount of tropoelastin was “increased the amount of tropoelastin”.

Question: And the pKa [3]?
Answer: Its pKa is “about 6”.

Question: What about the production of elastin ([1]; tannic acid (2 μg/mL) added to ferulic acid (5 μg/mL)) of the same molecule?
Answer: The production of elastin was “improved production of elastin even in the presence of ferulic acid”.

Question: And the elastin fiber formation [1, 5]?
Answer: The elastin fiber formation was “abolished the inhibitory effect of hyaluronic acid on elastin fiber formation”.

Question: What about the “net deposition of elastin” value [1, 5] of the same molecule?
Answer: Its value is “caused an improvement in net deposition of elastin”.

Question: What about the elastin fiber formation [1, 6] of the same molecule?
Answer: The elastin fiber formation was “abolished the inhibitory effect of vitamin D on elastin fiber formation”.

Question: What about the “net deposition of elastin” value [1, 6] of the same molecule?
Answer: The value was “caused an improvement in net deposition of elastin”.

Question: And the elastin concentration ([1]; tannic acid at high concentration (20 μg/mL))?
Answer: The elastin concentration was “caused elastosis”.

Question: What about the elastin concentration ([1]; tannic acid at low concentration (2 μg/mL), compared to high concentration) of the same molecule?
Answer: The elastin concentration was “improved elastin concentration”.

Question: Which concentrations of collagen [4] does the source give for `COc1cc(/C=C/C(=O)O)ccc1O` [ferulic acid] here?
Answer: Its concentrations of collagen is “minimal effect on concentrations of collagen”.

Question: What about the concentrations of elastin ([1]; ferulic acid (5 μg/mL) alone) of the same molecule?
Answer: Its concentrations of elastin is “negative effect on concentrations of elastin”.

Question: What about the effect on elastin ([1]; ferulic acid (20 μM)) of the same molecule?
Answer: The effect on elastin was “leads to a reduction in elastin”.

Question: For `O=S(=O)([O-])[O-].[Cu+2]` [copper sulfate, reference compound], which effect on elastin ([1]; copper sulfate (2 μM)) is on record?
Answer: The effect on elastin was “little effect on elastin”.
